In the supplement of paper PMC10307832:

Tests used:
Test in all cases: relative viability (nuclei count vs DMSO), 5 days (fraction); higher = more cells survive
Metformin + Linsitinib = compound: CN(C)C(=N)NC(=N)N [Metformin] + C[C@]1(O)C[C@@H](c2nc(-c3ccc4ccc(-c5ccccc5)nc4c3)c3c(N)nccn32)C1 [Linsitinib] (partner 1 µM)
In short: (§1)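 Lung cancer cell lines were pin-tool dosed in 1536-well plates on the day after seeding, with either a lone drug or a fixed anchor-drug dose plus five library-drug doses (not always all listed) in √10 steps. Nuclei were counted on 4× images after 5 days. Relative viability is the ratio of treated-well to vehicle-well nuclei counts, with each value a median of duplicate plates.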

Metformin + Decitabine = compound: CN(C)C(=N)NC(=N)N [Metformin] + Nc1ncn([C@H]2C[C@H](O)[C@@H](CO)O2)c(=O)n1 [Decitabine] (partner 2 µM)
In short: as §1

Metformin + Phenformin = compound: CN(C)C(=N)NC(=N)N [Metformin] + N=C(N)NC(=N)NCCc1ccccc1 [Phenformin] (partner 250 µM)
In short: as §1

Apatinib + Tozasertib = compound: N#CC1(c2ccc(NC(=O)c3cccnc3NCc3ccncc3)cc2)CCCC1 [Apatinib] + Cc1cc(Nc2cc(N3CCN(C)CC3)nc(Sc3ccc(NC(=O)C4CC4)cc3)n2)n[nH]1 [Tozasertib] (partner 0.1 µM)
In short: as §1

NCI-H460 was tested, and the relative viability (Metformin + Linsitinib; first compound 31.62 µM) was 0.772, the relative viability (Metformin + Linsitinib; first compound 100 µM) was 0.774 and the relative viability (Metformin + Linsitinib; first compound 316.23 µM) was 0.662. It also gave a relative viability (Metformin + Linsitinib; first compound 1000 µM) of 0.843, a relative viability (Metformin + Decitabine; first compound 31.62 µM) of 0.444 and a relative viability (Metformin + Decitabine; first compound 100 µM) of 0.493. For the same cell line, the relative viability (Metformin + Decitabine; first compound 316.23 µM) was 0.412, the relative viability (Metformin + Decitabine; first compound 1000 µM) was 0.469 and the relative viability (Metformin + Phenformin; first compound 10 µM) was 0.426. It also gave a relative viability (Metformin + Phenformin; first compound 31.62 µM) of 0.541, a relative viability (Metformin + Phenformin; first compound 100 µM) of 0.516 and a relative viability (Metformin + Phenformin; first compound 316.23 µM) of 0.509. It also gave a relative viability (Metformin + Phenformin; first compound 1000 µM) of 0.523, a relative viability (Apatinib + Tozasertib; first compound 0.08 µM) of 0.576 and a relative viability (Apatinib + Tozasertib; first compound 0.253 µM) of 0.51. For the same cell line, the relative viability (Apatinib + Tozasertib; first compound 0.8 µM) was 0.223, the relative viability (Apatinib + Tozasertib; first compound 2.53 µM) was 0.0517 and the relative viability (Apatinib + Tozasertib; first compound 8 µM) was 0.053.
